Measurements published in patent US12605418B2, “Chebulinic acid and its enriched fraction from the fruits of Terminalia chebula for treatment of benign prostatic hyperplasia (BPH) and its preparation thereof” (COUNCIL OF SCIENTIFIC AND INDUSTRIAL RESEARCH, priority 2020, dated 2026).
“Also recorded” adds a separate entry of the source.

Key:
Type in all cases: in vivo, male Sprague-Dawley (SD) rats
[1] = test system: Testosterone-induced BPH rats; assay: Prostate weight and prostate weight index (PI) in testosterone-induced BPH rat model; details: for Prostatic weight: BPH induced rats, vs induced group (FIGS. 3 and 6); for Prostate weight index (PI): oral once a day for 21 days, CA 100 mg/kg, CAEF 100/200 mg/kg, Finasteride 3 mg/kg, vs Testosterone induced group (FIG. 3)
Protocol: 12-14-week-old (3 month) male Sprague-Dawley (SD) rats with initial body weights of 200-220 g were taken from National Animal Laboratory Centre, CSIR-Central drug research institute (CDRI), Lucknow. The animals were maintained in conditions in accordance with the rules and regulation of animal ethical committee. These rats were housed in a pathogen-free room at 23±2° C. and a relative humidity of 70% with an alternating 12 h light/dark cycle. To assess the therapeutic effect of Chebulinic Acid (CA) and Chebulinic acid Enriched fraction (CAEF) on Benign Prostatic Hyperplasia (BPH), rat BPH model has been successfully generated by testosterone induction method. For model induction of BPH, Orchiectomy (Surgical removal of Testis) of rats was performed and then animals were left for ten days to recover. Now BPH was induced through the daily subcutaneous injections of Testosterone (5 mg/kg & 6.25 mg/ml in Corn Oil) at the inguinal region for 28 days continuously. While the treatment group received 7 days continuous administration of Testosterone and then Testosterone+CA (100 mg/kg B.W) or Testosterone+CAEF (100/200 mg/kg B.W.) or Testosterone+Finasteride (3 mg/kg) were administered orally once a day to these animals for next 21 days (FIG. 3). In another experiment the treatment group received 7 days continuous administration of Testosterone and then Testosterone+CAEF (100 mg/kg B.W.) administered orally once a day to these animals for next 4 weeks (group 1) 8 weeks (group 2) and 12 weeks (group 3) (FIG. 6). After that these animals were left for fasting overnight and sacrificed next day; their prostatic as well as other reproductive organs were dissected out. Portions of the prostatic ventral lobes were stored in 4% paraformaldehyde for histological and immuno-histochemical processing. Half of the remaining prostate tissue was stored in RNA later and the other half was stored at −80° C. for subsequent biochemical and molecular experiments. Blood samples were obtained from the caudal vena cava and collected in serum separating tubes. Testosterone induced BPH animal models were sacrificed after the simultaneous treatment of 21 days. The intact prostate tissue was dissected and removed carefully from these sacrificed animals. Now the prostate weight (PW) was measured and the prostate index (PI) was calculated as PW (mg)/Body Weight (gm)×100. Data were expressed as the mean±SEM of four animals per group (n=4 per group). The values were analysed using one-way analysis of variance. Values were considered statistically significant at p<0.05.

anti-apoptotic markers = assay: Anti-apoptotic markers in BPH rats (FIGS. 8-13, summary); details: summary of FIGS. 8-13
Protocol: (§1) To assess the therapeutic effect of Chebulinic Acid (CA) and Chebulinic acid Enriched fraction (CAEF) on Benign Prostatic Hyperplasia (BPH), rat BPH model has been successfully generated by testosterone induction method. For model induction of BPH, Orchiectomy (Surgical removal of Testis) of rats was performed and then animals were left for ten days to recover. Now BPH was induced through the daily subcutaneous injections of Testosterone (5 mg/kg & 6.25 mg/ml in Corn Oil) at the inguinal region for 28 days continuously. While the treatment group received 7 days continuous administration of Testosterone and then Testosterone+CA (100 mg/kg B.W) or Testosterone+CAEF (100/200 mg/kg B.W.) or Testosterone+Finasteride (3 mg/kg) were administered orally once a day to these animals for next 21 days (FIG. 3). In another experiment the treatment group received 7 days continuous administration of Testosterone and then Testosterone+CAEF (100 mg/kg B.W.) administered orally once a day to these animals for next 4 weeks (group 1) 8 weeks (group 2) and 12 weeks (group 3) (FIG. 6). After that these animals were left for fasting overnight and sacrificed next day; their prostatic as well as other reproductive organs were dissected out. Portions of the prostatic ventral lobes were stored in 4% paraformaldehyde for histological and immuno-histochemical processing. […]

[2] = test system: Prostate-Specific Antigen (PSA); assay: PSA expression in prostate tissue and serum of BPH rats (western blot); details: three weeks, CA 100 mg/kg, CAEF 200 mg/kg, CAEF formulation 200 mg/kg
[3] = Testosterone serum level in BPH rats; details: BPH induced rats after treatment
[4] = test system: prostatic tissues in testosterone induced BPH rats; assay: Histopathological examination (H&E) of prostate tissue in testosterone-induced BPH rats; details: for Histological conditions / architecture of the prostate: BPH induced rats (FIG. 4)
PSA = PSA level in serum of BPH rats (ELISA); details: summary statement, FIGS. 5 and 7
Procaspase 3 = assay: Expression of Procaspase 3 in BPH induced rat model; details: vs induced animal model; finasteride positive control
[5] = test system: Poly [ADP-ribose] polymerase 1 (PARP1); assay: Expression of PARP1 in BPH induced rat model; details: vs BPH induced group; finasteride positive control
Protocol: as §1

[6] = test system: Vascular endothelial growth factor (VEGF); assay: Expression of VEGF in BPH induced rat model; details: within three weeks; vs non-treated induced BPH group; finasteride positive control

O=C(O)CC1C(=O)OC2C(COC(=O)c3cc(O)c(O)c(O)c3)OC(OC(=O)c3cc(O)c(O)c(O)c3)C(OC(=O)c3cc(O)c(O)c4c3C1C(O)C(=O)O4)C2OC(=O)c1cc(O)c(O)c(O)c1 [CA, 1.3,6-tri-O-galloyl-2,4-chebuloyl-beta-D-glucose]
Prostatic weight index compared with normal control group ([1]; 100/200 mg/kg dose (FIG. 3) and 100 mg/kg of CAEF (FIG. 6)): quite close to the normal control group | Prostatic weight [1]: reduced significantly; also recorded: significant reduction | Prostatic weight ([1]; listed as Chebulinic acid): decreased the prostate weight | Prostate weight index (PI) [1]: significantly decreased; also recorded: reduced significantly | Development of prostatic hyperplasia ([1]; testosterone-induced BPH rats): significantly suppressed; also recorded: suppressed the development of prostatic hyperplasia considerably | Anti-apoptotic markers (anti-apoptotic markers): down-regulated | PSA expression in prostate tissue [2]: down-regulated | PSA expression in serum [2]: down-regulated | Level of testosterone in sera [3]: reduced level | Histological conditions / architecture of the prostate [4]: improved histological conditions | Histological conditions / architecture of the prostate ([4]; listed as Chebulinic acid): restored the altered histological architecture | Glandular hyperplasia of the prostate (histopathological examination) ([4]; BPH rats): mild glandular hyperplasia | Prostatic lumen area ([4]; H&E, CA/CAEF 100/200 mg/kg, vs Induced BPH group (FIG. 4)): increased prostatic lumen areas significantly | Level of PSA in sera (PSA): reduced level

CC(C)(C)NC(=O)[C@H]1CC[C@H]2[C@@H]3CC[C@H]4NC(=O)C=C[C@]4(C)[C@H]3CC[C@]12C [Finasteride]
Prostate weight index (PI) [1]: close to the 200 mg/kg CA/CAEF treated group | Expression of Procaspase 3 (Procaspase 3): decreased expression | Expression of PARP1 [5]: reduced expression | Expression of VEGF [6]: reduced expression
